# Source: paper PMC5974752, “Bax/Tubulin/Epithelial-Mesenchymal Pathways Determine the Efficacy of Silybin Analog HM015k in Colorectal Cancer Cell Growth and Metastasis” (Frontiers in Pharmacology, 2018)
# What was measured:
# COLO 205 cell line = assay: Transwell migration assay; type: cell-based; conditions: 2 and 4 μM, data not shown
# Description: (§1) The effect of compound 15k on the invasiveness of LOVO was tested using 24 trans-well inserts with an […]. The addition of the insert to the well forms two chambers (upper and lower), where the upper chamber was used to grow the cells on the porous membrane. The lower chamber was filled with 600 μl of cell-free DMEM medium. A 200 μl of cell suspension was added to each insert and allowed to attach for 1 h. The test compound was added in different concentrations and incubated with the cells for 24 h. […] Finally, the remaining migrated cells were fixed by methanol and dyed with 0.1% crystal violet dye and observed with an EVOS microscope. The number of migrated cells was counted and compared between the treated and control cells.
# The development of cancer metastasis is dependent on the migration and invasive properties of cancerous cells (van Zijl et al., [2011]). The wound healing and transwell migration assays were used with LOVO cells, as a model for metastatic CRC as it is characterized by a high level of invasiveness (Fan et al., [2015]). The wound healing assay is a well-established method to detect and analyze cell migration potential (Liang et al., [2007]). […] The effect of compound 15k on the invasiveness of COLO 205 cell line was also measured using trans-well migration assay. […] 15j also reversed cell migration and metastasis at different concentrations.
# HCT116 cells [1] = assay: Detection of reactive oxygen species (H2DCF-DA); type: cell-based, human; conditions: 1, 2 and 4 μM, 24 and 48 h, vs vehicle
# Description: H2DCF-DA was used as previously described (Amawi et al., [2017c]). The cells that had been incubated with the test compound were further incubated with 3 μM of the H2DCF-DA working solution for 30 min at 37°C. The fluorescence level of oxidized DCF (excitation at 485 nm and emission at 535 nm) was detected under EVOS digital fluorescent microscope at 40x.
# HCT116 cells [2] = assay: MitoTracker Red / Alexa Fluor 488 annexin V flow cytometry; type: cell-based, human; conditions: overnight
# Description: The mitochondrial membrane potential and the induction of apoptosis were analyzed in HCT116 cells using the MitoTracker Red and Alexa Fluor 488 annexin V kits for flow cytometry as previously described (Karthikeyan et al., [2015]). Six well plates were used for seeding of cells, followed by incubation with 15j or 15k (0, 1, 2, and 4μM) for overnight. Subsequently, the cells were harvested, counted and 4 μl of a 10μM working solution of MitoTracker Red was added to each 1 ml cell suspension, followed by 30 min of incubation at 37°C with 5% CO2. The cells were resuspended in 100 μl of annexin binding buffer and 5 μl of Alexa Fluor 488 annexin V was added to the suspension and incubated for 15 min. Finally, 400 μl of annexin-binding buffer was added and the stained cells were detected by flow cytometry. The fluorescence emission at 530 and 585 nm was measured using a BD Accuri™ C6 flow cytometer and analyzed using FCS express 5 plus De Novo software.
# CRL-1459 = assay: MTT assay, normal cell line; type: cell-based; conditions: 72 h incubation, mean ± SD of three experiments
# Description: The 3-(4,5-dimethylthiazol-2-yl)-2,5-diphenyltetrazolium bromide (MTT) assay was used to determine the sensitivity of the different CRC cells to the novel silybin derivatives (Hussein et al., [2017]; Manivannan et al., [2017]). The cells were seeded at a density of 4,000–5,000 cells/well in 96 well plates and incubated with serial dilutions of the compounds (0, 0.1, 0.3, 1, 3, 10, 30, and 100 μM). The MTT dye (4 mg/ml) was added after 72 h of incubation and incubated with the cells for an additional 4 h at 37°C. Following incubation, the media was discarded and the formazan crystals were dissolved by adding 100 μL of DMSO to each well. A DTX 880 multimode detector (Beckman Coulter Life, Indianapolis IN, USA) was used to determine the absorbance readings at a wavelength of 570 nm. The IC50 values were determined based on 3 separate experiments, with each experiment done in triplicate. The selectivity of the compounds was determined by comparing their cytotoxicity for CRC to normal epithelial cell lines (CHO, and CRL1459).
# HCT116 = assay: Cell cycle analysis (PI, flow cytometry); type: cell-based, human; conditions: 0, 2 or 4 μM, 12 h, data not shown
# Description: Cell cycle analysis was performed as described previously (Pozarowski and Darzynkiewicz, [2004]). Briefly, a 6 well plate was used for the seeding of HCT116 at 1 × 10^6 cells/well. The next day, 15j and 15k (0, 2, or 4 μM) were added and incubated with the seeded cells. After 12 h, the cells were trypsinzed with 0.25% trypsin, 2.21 mM EDTA, 1X, washed, counted and resuspended in 0.5 ml of ice cold PBS. PI stain was added to each suspension for at least 15 min to stain the DNA. The cell cycle analysis and cell distribution for each phase was measured using a BD Accuri™ C6 flow cytometer (BD Biosciences, Becton-Dickinson, San Jose, CA, USA) and analyzed using FCS express 5 plus De Novo software (Glendale, CA, USA).
# E-cadherin = assay: Immunofluorescence staining in HCT116 cells; type: cell-based, human; conditions: 2 μM p < 0.05, 4 μM p < 0.001, 24 h
# Description: (§2) HCT116 cells were used to ascertain the action of compound 15k on α-tubulin, E-cadherin and β-catenin. The cells were seeded on to culture glass covers inserted in 6 well plates. The compound was added at 0, 2, and 4μM and incubated with the cells overnight at 37°C. Paraformaldehyde (4%) was used for cell fixation, followed by permiabilization with 0.3% triton 100× in PBS for 25 min. The cells were blocked with 3% BSA in PBS for 30 min. The α-tubulin, E-cadherin, or β-catenin rabbit antibodies in the correct dilution were added, followed by fluorescent anti-rabbit secondary antibody in the same manner. The nuclei were stained with the nuclear dye, DAPI, for 15 min. The EVOS cell imaging system was used to detect the fluorescence from each slide.
# β-catenin = assay: Immunofluorescence staining in HCT116 cells; type: cell-based, human; conditions: 2 and 4 μM, p < 0.01 vs vehicle
# Description: as §2
# α-tubulin = assay: Immunofluorescence staining in HCT116 cells; type: cell-based, human; conditions: 2 or 4 μM, overnight, p < 0.001 vs control
# Description: as §2
# HCT116 cell = assay: Cell morphology (EMT reversal); type: cell-based, human; conditions: HCT116 after incubation with 15k
# Description: The aberrant, over-activation of embryonic signaling pathways, including Wnt/β-catenin/epithelial-mesenchymal transition (EMT), is involved in the development, progression, metastasis, and resistance of CRC (Du and Shim, [2016]). […] To test this hypothesis, the morphology of HCT116 cell was observed following incubation with 15k. […] We then determined the efficacy of compound 15k on the expression of (1) β-catenin; (2) E-cadherin, and (3) N-cadherin in CRC cells.
# LOVO cells = assay: Transwell migration assay; type: cell-based, human; conditions: 2 and 4 μM, 24 h, vs vehicle
# Description: as §1
smiles,measurement,setting,value
O=C(/C=C/c1cccc(OCc2ccccc2)c1)c1ccc(O)cc1 [Compound 15k],trans-well migration,COLO 205 cell line,significantly inhibited the migration
same,ROS formation (oxidized DCF fluorescence),HCT116 cells [1],significantly increased ROS formation
same,"cells undergoing apoptosis, quadrant II (Q2)","HCT116 cells [2]; 2 μM, vehicle 2.83%",47%
same,viability at 2 µM,"HCT116 cells [2]; Homo sapiens, HCT-116, 2 μM, vehicle 90.66%, read-out: viable cells in quadrant I (Q1)",35.8%
same,viability at 4 µM,"HCT116 cells [2]; Homo sapiens, HCT-116, 4 μM, vehicle 90.66%, read-out: viable cells in quadrant I (Q1)",36%
same,IC50,CRL-1459,8.5 ± 0.7 µM
same,effect on the cell cycle,HCT116,significant concentration-dependent increase in the number of cells in the G2 and S phases
same,E-cadherin expression (immunostaining),E-cadherin,significantly increased
same,level of β-catenin available for nuclear translocation (immunostaining),β-catenin,significant decrease
same,α-tubulin green fluorescence,α-tubulin,significant reduction
same,cell morphology,HCT116 cell,significantly changed the morphology of the cells from mesenchymal to a more epithelial-like appearance
same,number of cells migrated through transwell,LOVO cells,significantly decreased the number of LOVO cells that migrated
